We go through one molecule from patent US20170328922A1, “METHODS AND PRODUCTS FOR LABELLING LIPIDS” (UNIVERSITY OF SOUTH AUSTRALIA, priority 2014, published 2017).

A short description of experiment [1]: Rhenium molecular probe-lipid overlay (dot blot). Further details: key to interaction with Progesterone (dot blot): ✓ indicates a positive interaction; x indicates no interaction. The class given is binding. As to the method: The experimental protocol probe-lipid overlay was as follows: 50 μM of each lipids was loaded on to PVDF membranes (Perkin Elmer, USA), which were then incubated with molecular probes. PhenCyano and PhenPyridyl were assessed against eleven lipids including; sphingomyelin (Cat # S0756, Sigma Aldrich, USA), sphingosine (Cat # S7049; Sigma Aldrich, USA), L-phosphatidylethanolamine (Cat # P7943, Sigma Aldrich, USA), monosialodanglioside (GM1; Cat # G7641, Sigma Aldrich, USA), oleoly-L-?-lysophosphatidic acid (Cat # L7260, Sigma Aldrich, USA), palmitic acid (Cat # P5917, Sigma Aldrich, USA), sphingomyelin (Cat # S0756, Sigma Aldrich, USA), sphingosine (Cat # S7049; Sigma Aldrich, USA), L-?-phosphatidylethanolamine (Cat # P7943, Sigma Aldrich, USA), monosialodanglioside (GM1; Cat # G7641, Sigma Aldrich, USA), progesterone (Cat #102722, MP Biomedical, USA), ceramide (Cat # C2137; Sigma Aldrich, USA), triacylglycerol mix C2-C10 (Cat #17810, Sigma Aldrich, USA) and cholesteryl acetate (Cat #151114; Sigma Aldrich, USA).
Lipids were dissolved in ethanol, methanol or isopropanol for loading depending on solubility. Following lipid loading, membranes were left to dry for 20-30 minutes, then they were washed for 10 minutes in cold 10% ethanol, before they were incubated with 10 μM solution of each Rhenium molecular probe in cold 10% ethanol for one hour. Membranes were than washed four times for 10 minutes in cold 10% ethanol prior to imaging. Imaging was performed on an Image Quant Las 4000 (GE, Sweden) luminescent image analyser, with the Rhenium molecular probe being detected by excitation at 460 nm using an epi-blue light source, and detected using an 575 nm ethidium bromide filter.

The subject of experiment [2] is Drosophila fat body tissue. As to the kind of experiment: Live staining and confocal imaging of explanted fat body tissue. It is filed as cell-based. How it is done:
All stocks were maintained in standard medium at 25° C. The yeast GAL4-UAS system was used for targeted gene expression (Brand and Perrimon, 1993). Fat-body specific expression of transgenes from the UAS were driven by CG-GAL4 (Asha et al., 2003). Transgenic UAS-Atg9RNAi stocks (#34901) and UAS-TorTED stocks (#7013) were obtained from the Bloomington Drosophila Stock Centre (Indiana University, IN, USA). Atg8aGFP was driven by an endogenous promoter (Kelso et al., 2004).
Bromophenol-blue was added to the fly media and used to define different developmental time points. […] Newly formed white pupae (0 h PF), were isolated onto moist filter paper and incubated at 25° C. for either two hours (+2 h PF) or four hours (+4 h PF).
Third instar larvae at −8 h PF were removed from standard media (normally feeding at this developmental stage) and placed on filter paper either soaked in 5% (w/v) sucrose (for amino acid deprivation), or 5% (w/v) tryptone pancreatic digest of casein (BD Bioscience USA; for carbohydrate deprivation), or soaked in water (for complete starvation). Larvae were incubated for 4-5 hours prior tissue isolation and imaging.
Fat body tissue was dissected into PBS from Drosophila larvae or pupae. The fat body tissue was either incubated with 10 μM tricarbonyl phenanthrolin (4-cyanophenyltretrazolato) Rhenium (I) in PBS for 15 minutes at room temperature, or LysoTracker® green (according to manufacturer instructions; Invitrogen, USA) and then mounted in carbomer-940 (Snowdrift farm, Tucson, USA) based optical coupling gel to prevent dehydration prior to imaging (Rothstein et al., 2006). For Oil Red O staining, fat body tissue was fixed in 4% (v/v) paraformaldehyde for 20 minutes, and incubated in 1/100 Oil Red 0 for 30 minutes and then washed in PBS before mounting in 80% glycerol.
A Ziess LSM710 META NLO confocal microscope (Zeiss, Germany), supplemented with a two-photon Mai-Tai® (tunable Ti:Sapphire femtosecond pulse laser, 710-920 nm, Spectra-Physics, Australia) was used for imaging. The images were acquired using a Plan-APOCHROMAT 63×/NA1.4 oil immersion objective. The Rhenium probe was excited at 830 nm using the two-photon pulse laser and detect at 600-654 nm. LysoTracker® green was imaged by excitation at 488 nm and detected at 497-558 nm. Atg8a-GFP was imaged with the Rhenium probe by excitation at 830 nm and resolved using spectral un-mixing using the Zen software package (based on spectral figure-printing of the two components). The Rhenium probe images and co-location analysis involved at least five separate images from five independent biological replicates, and one representative image from each treatment was selected for presentation (containing a minimum of 2 cells). For image quantification, two regions of interest (ROI) were selected at random with an area of 2500 μm^2 and the number of fluorescent puncta within the area counted, to give a minimum of 10 counts per treatment group. Comparison of means was performed by ANOVA with a Tukey post hoc tested in GraphPad Prism V.6.01 (USA).

For `N#Cc1ccc(-c2nn[n]([Re](=[C]=O)(=[C]=O)=[C]=O)n2)cc1.c1cnc2c(c1)ccc1cccnc12` [PhenCyano, Triscarbonyl phenanthroline (4-cyanophenyltetrazolato)Rhenium(I)], the “interaction with Progesterone (dot blot)” value in experiment [1] (10 μM probe, 50 μM lipid on PVDF membrane) is “✓”. The “affinity towards progesterone, in words” value in experiment [1] (FIG. 7) is reported as “some affinity”. Besides, the “probe distribution in fat body” value in experiment [2] (0 h PF, 10 μM probe, 15 minutes) was “most of the Rhenium probe was still inside lipid droplets”; in experiment [2] (+2 h PF, 10 μM probe, 15 minutes), “dramatic reduction in the amount of Rhenium probe interacting with lipid droplets”; in experiment [2] (−4 h PF, 10 μM probe, 15 minutes), “interacted with the core of lipid droplets”; in experiment [2] (−8 h PF, dominant negative TorTED expression), “almost all of the Rhenium probe in LysoTracker® green positive vesicles”. In addition, the “vesicles staining with the probe that were also Atg8a-GFP positive” value in experiment [2] (−4 h PF larvae starved (amino acid and sugar deprivation)) is reported as “approximately 90±11%”.
